From US8389513B2, “2-amino-5,5-difluoro-5,6-dihydro-4H-[1,3]oxazin-4-yl)-phenyl]-amides” (Hoffmann-La Roche Inc., priority 2009, dated 2013)

What was measured:
BACE2 = target: T1, BACE2 (Rattus norvegicus, UniProt Q6IE75); assay: Assay for BACE inhibition by measuring cellular TMEM27 cleavage; format: cell-based; settings: INS-TMEM27 cells (INS1e-derived); shed TMEM27 by ELISA; read-out: BACE2 cell act. IC50
T1 construct: endogenous cellular BACE2 in the Ins1e rat cell line; endogenous in cells; host or cells: INS-TMEM27 (INS1e-derived rat cell line with TetOn-inducible full-length hTMEM27)
T1 sequence (Q6IE75 63-514): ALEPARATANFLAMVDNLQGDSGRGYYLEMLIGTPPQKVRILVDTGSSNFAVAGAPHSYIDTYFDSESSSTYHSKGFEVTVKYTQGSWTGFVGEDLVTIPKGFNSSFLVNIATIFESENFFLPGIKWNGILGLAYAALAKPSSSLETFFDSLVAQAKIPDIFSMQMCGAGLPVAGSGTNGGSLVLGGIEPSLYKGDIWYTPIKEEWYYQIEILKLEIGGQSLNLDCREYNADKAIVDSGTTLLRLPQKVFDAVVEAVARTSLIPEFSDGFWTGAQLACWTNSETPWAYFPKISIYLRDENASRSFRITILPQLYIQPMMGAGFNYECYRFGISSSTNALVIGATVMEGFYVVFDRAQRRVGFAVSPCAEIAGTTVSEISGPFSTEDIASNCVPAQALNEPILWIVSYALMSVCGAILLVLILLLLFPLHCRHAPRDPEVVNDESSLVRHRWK
From the text: Assay for BACE Inhibition by Measuring Cellular TMEM27 Cleavage:
The assay uses the principle of inhibition of human TMEM27 cleavage by endogenous cellular BACE2 in the Ins1e rat cell line and shedding from the cell surface into the culture medium, followed by detection in an ELISA assay. Inhibition of BACE2 prevents the cleavage and shedding in a dose-dependent manner.
The stable cell line “INS-TMEM27” represents an INS1e-derived cell line with inducible expression (using the TetOn system) of full-length hTMEM27 in a doxycycline-dependent manner. The cells are cultured throughout the experiment in RPMI1640+Glutamax (Invitrogen) Penicillin/Streptomycin, 10% Fetal bovine serum, […] pyruvate, […] beta-mercatptoethanol, 100 micrograms/ml G418 and 100 microgram/ml hygromycin and are grown inadherent culture at 37° C. in a standard CO2 cell culture incubator. INS-TMEM27 cells are seeded in 96-well plates. After 2 days in culture, BACE2 inhibitor is added in a range of concentrations as required by the assay and after a further two hours, doxycycline is added to a final concentration of 500 ng/ml. The cells are incubated for a further 46 hours and the supernatant harvested for detection of shed TMEM27.
An ELISA assay (using a pair of mouse anti-human-TMEM27 antibodies, raised against the extracellular domain of TMEM27) is used for detection of TMEM27 in the culture medium. An EC50 for BACE2 inhibition is calculated using the ELISA readout for each inhibitor concentration with standard curve-fitting software such as XLFit for the Excel spreadsheet program.

BACE1 = target: T2, BACE1 (Homo sapiens, UniProt P56817); assay: Cellular Aβ-lowering assay (Aβ40 ELISA); format: cell-based; settings: HEK293 cells stably expressing human APP695; Aβ40 in culture supernatant; read-out: BACE1 cell act. Aβ40 IC50
T2 construct: Human HEK293 cells which are stably transfected with a vector expressing a cDNA of the human APP wt gene (APP695); endogenous in cells; host or cells: HEK293 stably transfected with human APP695 wt
T2 sequence (P56817 46-501): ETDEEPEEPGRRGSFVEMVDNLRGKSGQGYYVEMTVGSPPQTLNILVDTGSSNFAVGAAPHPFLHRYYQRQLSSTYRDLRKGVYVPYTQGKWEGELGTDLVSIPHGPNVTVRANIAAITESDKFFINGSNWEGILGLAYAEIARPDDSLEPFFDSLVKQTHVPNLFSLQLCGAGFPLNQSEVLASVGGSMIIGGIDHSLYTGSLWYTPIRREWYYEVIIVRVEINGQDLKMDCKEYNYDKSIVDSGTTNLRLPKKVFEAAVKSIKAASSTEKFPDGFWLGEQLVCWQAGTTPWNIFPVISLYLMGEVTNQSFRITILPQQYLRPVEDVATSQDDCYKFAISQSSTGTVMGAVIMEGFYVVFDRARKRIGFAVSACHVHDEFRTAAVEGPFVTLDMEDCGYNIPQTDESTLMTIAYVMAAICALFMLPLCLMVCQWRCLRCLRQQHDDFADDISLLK
Description: Cellular Aβ-Lowering Assay:
Human HEK293 cells which are stably transfected with a vector expressing a cDNA of the human APP wt gene (APP695) were used to assess the potency of the compounds in a cellular assay. The cells were seeded in 96-well microtiter plates in cell culture medium (Iscove, plus 10% (v/v) fetal bovine serum, glutamine, penicillin/streptomycin) to about 80% confluence and the compounds were added at a 10× concentration in 1/10 volume of medium without FCS containing 8% DMSO (final concentration of DMSO was kept at 0.8% v/v). After 18-20 hrs incubation at 37° C. and 5% CO2 in a humidified incubator the culture supernatant was harvested for the determination of Aβ40 concentrations. […] Subsequently the wells of the microtiter plate were washed extensively with Tris-buffered saline containing 0.05% Tween 20 and the assay was developed with tetramethylbenzidine/H2O2 in citric acid buffer. After stopping the reaction with one volume 1 NH2SO4 the reaction was measured in an ELISA reader at 450 nm wavelength. The concentrations of Aβ in the culture supernatants were calculated from a standard curve obtained with known amounts of pure Aβ peptide.

Row | SMILES | IC50 (BACE2) [nM] | IC50 (BACE1) [nM]
1 | C[C@]1(c2cc(NC(=O)c3ncccc3F)ccc2F)N=C(N)OCC1(F)F [Example 10, 3-Fluoro-pyridine-2-carboxylic acid [3-((R)-2-amino-5,5-difluoro-4-methyl-5,6-dihydro-4H-[1,3]oxazin-4-yl)-4-fluoro-phenyl]-amide] | 52 | 87
2 | CC1(C)OC(N)=N[C@](C)(c2cc(NC(=O)c3ncc(C(F)(F)F)cn3)ccc2F)C1(F)F [Example 33, 5-Trifluoromethyl-pyrimidine-2-carboxylic acid [3-((R)-2-amino-5,5-difluoro-4,6,6-trimethyl-5,6-dihydro-4H-[1,3]oxazin-4-yl)-4-fluoro-phenyl]-amide] | 2610 | 29
3 | C[C@]1(c2cccc(NC(=O)c3ccc(C#N)cn3)c2)N=C(N)OCC1(F)F [Example 53, 5-Cyano-pyridine-2-carboxylic acid [3-((R)-2-amino-5,5-difluoro-4-methyl-5,6-dihydro-4H-[1,3]oxazin-4-yl)-phenyl]-amide] | 349 | 13
4 | Cn1ccc(C(=O)Nc2ccc(F)c([C@@]3(C)N=C(N)OCC3(F)F)c2)n1 [Example 63, 1-Methyl-1H-pyrazole-3-carboxylic acid [3-((R)-2-amino-5,5-difluoro-4-methyl-5,6-dihydro-4H-[1,3]oxazin-4-yl)-4-fluoro-phenyl]-amide] | 113 | 110
5 | C[C@]1(c2cc(NC(=O)c3ncccc3OCC(F)(F)F)ccc2F)N=C(N)OCC1(F)F [Example 54, 3-(2,2,2-Trifluoro-ethoxy)-pyridine-2-carboxylic acid [3-((R)-2-amino-5,5-difluoro-4-methyl-5,6-dihydro-4H-[1,3]oxazin-4-yl)-4-fluoro-phenyl]-amide] | 245 | 635
6 | C[C@]1(c2cc(NC(=O)c3ccc(OCF)cn3)ccc2F)N=C(N)OCC1(F)F [Example 42, 5-Fluoromethoxy-pyridine-2-carboxylic acid [3-((R)-2-amino-5,5-difluoro-4-methyl-5,6-dihydro-4H-[1,3]oxazin-4-yl)-4-fluoro-phenyl]-amide] | 300 | 29
7 | CC1(C)OC(N)=N[C@](C)(c2cc(NC(=O)c3ccc(OCF)cn3)ccc2F)C1(F)F [Example 26, 5-Fluoromethoxy-pyridine-2-carboxylic acid [3-((R)-2-amino-5,5-difluoro-4,6,6-trimethyl-5,6-dihydro-4H-[1,3]oxazin-4-yl)-4-fluoro-phenyl]-amide] | 761 | 30
8 | C[C@]1(c2cc(NC(=O)c3ccc(C#N)cn3)ccc2Cl)N=C(N)OCC1(F)F [Example 51, 5-Cyano-pyridine-2-carboxylic acid [3-((R)-2-amino-5,5-difluoro-4-methyl-5,6-dihydro-4H-[1,3]oxazin-4-yl)-4-chloro-phenyl]-amide] | 327 | 20
9 | C[C@]1(c2cc(NC(=O)c3[nH]ncc3Cl)ccc2F)N=C(N)OCC1(F)F [Example 65, 4-Chloro-2H-pyrazole-3-carboxylic acid [3-((R)-2-amino-5,5-difluoro-4-methyl-5,6-dihydro-4H-[1,3]oxazin-4-yl)-4-fluoro-phenyl]-amide] | 543 | 404
10 | C[C@]1(c2cc(NC(=O)c3ncc(Cl)cc3F)ccc2F)N=C(N)OCC1(F)F [Example 15, 5-Chloro-3-fluoro-pyridine-2-carboxylic acid [3-((R)-2-amino-5,5-difluoro-4-methyl-5,6-dihydro-4H-[1,3]oxazin-4-yl)-4-fluoro-phenyl]-amide] | 52 | 9
11 | CC1(C)OC(N)=N[C@](C)(c2cc(NC(=O)c3ncc(Cl)cc3Cl)ccc2F)C1(F)F [Example 23, 3,5-Dichloro-pyridine-2-carboxylic acid [3-((R)-2-amino-5,5-difluoro-4,6,6-trimethyl-5,6-dihydro-4H-[1,3]oxazin-4-yl)-4-fluoro-phenyl]-amide] | 66 | 11
12 | Cc1nc(C(=O)Nc2ccc(F)c([C@@]3(C)N=C(N)OCC3(F)F)c2)co1 [Example 58, 2-Methyl-oxazole-4-carboxylic acid [3-((R)-2-amino-5,5-difluoro-4-methyl-5,6-dihydro-4H-[1,3]oxazin-4-yl)-4-fluoro-phenyl]-amide] | 25 | 15
13 | C[C@]1(c2cc(NC(=O)c3ncccc3C(F)(F)F)ccc2F)N=C(N)OCC1(F)F [Example 6, 3-Trifluoromethyl-pyridine-2-carboxylic acid [3-((R)-2-amino-5,5-difluoro-4-methyl-5,6-dihydro-4H-[1,3]oxazin-4-yl)-4-fluoro-phenyl]-amide] | 330 | 180
14 | C[C@]1(c2cc(NC(=O)C3(C(F)(F)F)CC3)ccc2F)N=C(N)OCC1(F)F [Example 75, 1-Trifluoromethyl-cyclopropanecarboxylic acid [3-((R)-2-amino-5,5-difluoro-4-methyl-5,6-dihydro-4H-[1,3]oxazin-4-yl)-4-fluoro-phenyl]-amide] | 1010 | 1490
15 | C[C@]1(c2cc(NC(=O)c3ccc(OCC(F)F)cn3)ccc2F)N=C(N)OCC1(F)F [Example 45, 5-(2,2-Difluoro-ethoxy)-pyridine-2-carboxylic acid [3-((R)-2-amino-5,5-difluoro-4-methyl-5,6-dihydro-4H-[1,3]oxazin-4-yl)-4-fluoro-phenyl]-amide] | 25700 | 400
16 | CC1(C)OC(N)=N[C@](C)(c2cc(NC(=O)c3ccc(Cl)nn3)ccc2F)C1(F)F [Example 37, 6-Chloro-pyridazine-3-carboxylic acid [3-((R)-2-amino-5,5-difluoro-4,6,6-trimethyl-5,6-dihydro-4H-[1,3]oxazin-4-yl)-4-fluoro-phenyl]-amide] | 50700 | 710
17 | CC1(C)OC(N)=N[C@](C)(c2cc(NC(=O)c3ccc(Cl)cn3)ccc2F)C1(F)F [Example 19, 5-Chloro-pyridine-2-carboxylic acid [3-((R)-2-amino-5,5-difluoro-4,6,6-trimethyl-5,6-dihydro-4H-[1,3]oxazin-4-yl)-4-fluoro-phenyl]-amide] | 120 | 70
18 | Cc1nc(C(=O)Nc2ccc(F)c([C@@]3(C)N=C(N)OCC3(F)F)c2)c(C(F)(F)F)o1 [Example 60, 2-Methyl-5-trifluoromethyl-oxazole-4-carboxylic acid [3-((R)-2-amino-5,5-difluoro-4-methyl-5,6-dihydro-4H-[1,3]oxazin-4-yl)-4-fluoro-phenyl]-amide] | 367 | 88
19 | C[C@]1(c2cc(NC(=O)c3ccc(OC(F)F)cn3)ccc2F)N=C(N)OCC1(F)F [Example 41, 5-Difluoromethoxy-pyridine-2-carboxylic acid [3-((R)-2-amino-5,5-difluoro-4-methyl-5,6-dihydro-4H-[1,3]oxazin-4-yl)-4-fluoro-phenyl]-amide] | 855 | 11
20 | Cc1nc(C(=O)Nc2ccc(F)c([C@@]3(C)N=C(N)OCC3(F)F)c2)c(C)o1 [Example 59, 2,5-Dimethyl-oxazole-4-carboxylic acid [3-((R)-2-amino-5,5-difluoro-4-methyl-5,6-dihydro-4H-[1,3]oxazin-4-yl)-4-fluoro-phenyl]-amide] | 97 | 43
